Experimental data as given in EP4361136A1, “COMPOUND FOR THE TREATMENT OF GLIOBLASTOMA” (Universidad De Córdoba, priority 2021, dated 2022).

Legend:
glioblastoma (GBM) cells = experiment: In vitro functional assays in glioblastoma cells (proliferation, migration, tumoursphere formation, VEGF secretion, apoptosis, marker expression); type: cell-based, human
Method: The proliferation assay (see below) was used to develop a dose-response and IC50 determination of pladienolide-b in glioblastoma cells. The selected doses of pladienolide-b, based on previously reported in vitro studies, were 10^-9 , 10^-7 and 10^-5 M measured 48 h after administration of the SF3B1 inhibitor in glioblastoma cell lines and patient-derived primary glioblastoma cell culture. Least squares regression was used as a method of adjustment to the IC50 determination.
As described above, cell proliferation and migration in response to pladienolide-b treatment were analyzed using the alamar blue assay (3,000 cells/well for cell lines and 10,000 cells/well for primary cell cultures; Biosource International, # BUF012B) and the wound healing technique (150,000 U-118 MG cells/well), respectively. For the migration assay, U-118 MG cells cultured at confluence were serum deprived for 24 h to achieve cell synchronization and then wounded with a sterile 200 µl pipette tip. Wells were replaced and cells were incubated for 6 h and 24 h with medium supplemented without FBS. Wound healing was compared to the area immediately after wounding. […]
The VEGF human ELISA kit (ThermoFisher Scientific, no. KHG0112) was used to quantify VEGF secretion in response to pladienolide-b in glioblastoma cell lines, following the manufacturer's instructions. […]

U-87 MG cells = experiment: Preclinical xenograft GBM mouse model, intratumoral injection; type: in vivo, mice
Method: A preclinical xenograft mouse model was developed to test pladienolide-b in vivo. Five-week-old ATHYMFoxn1nu/nu mice (n = 6; Janvier-Labs) were subcutaneously injected with 3×10^6 of U-87 MG cells in both flanks [in 100 µl of basal membrane extract (Trevigen, # 3432-010-01)]. Once the tumour was clearly measurable (10 days after cell inoculation), each mouse received an intratumour injection with 50 µl of pladienolide-b (10^-7 M) in one flank and vehicle (1x DPBS, Sigma-Aldrich, # D1408) used as a control in another flank. Tumour growth was monitored every 2 days using a digital caliper. 20 days after injection, mice were sacrificed and each tumour was dissected, fixed, and sectioned for histopathological examination after staining with haematoxylin and eosin. Examination of the number of mitoses, vascular proliferation and necrosis was performed by experienced pathologists. Additional tumour pieces were in liquid nitrogen until RNA extraction using Trizol reagent and protein extraction using SDS-DTT buffer, as previously reported. One individual was assessed by micro-CT imaging using SkyScan1176 Bruker and a software environment to show the location of the tumour in vivo prior to dissection. 2D analysis along with 3D image rendering was performed using VolView 3.4 software (KitWare Inc). […]

## CC[C@H](O)[C@@H](C)[C@H]1O[C@@H]1C[C@H](C)/C=C/C=C(\C)[C@H]1OC(=O)C[C@H](O)CC[C@@](C)(O)[C@@H](OC(C)=O)/C=C/[C@@H]1C [pladienolide-b, [(2 S, 3 S, 4 E , 6 S , 7 R , 10 R ) -7,10-dihydroxy-2 - [(2 E , 4 E, 6 S ) -7 - [(2 R , 3 R ) -3 - [(2 R , 3 S ) -3-hydroxypentan-2-yl]oxiran-2-yl] -6-methylhepta-2,4-dien-2-yl] -3,7-dimethyl-12-oxo-1-oxazacyclododec-4-en-6-yl] acetate]
Glioblastoma (GBM) cells; 10^-7 M, compared to control conditions, U-87 MG, U-118 MG and patient-derived primary GBM cells
  critical functional parameters of aggressiveness and key markers of tumour development/progression/aggressiveness: decreases
Glioblastoma (GBM) cells; summary statement (Figure 4)
  several functional parameters in vitro: reduced
U-87 MG cells; U-87 MG xenograft, intratumour injection of 50 µl (10^-7 M) versus vehicle-treated flank
  glioblastoma (GBM) progression and vascularization: alters
U-87 MG cells; in vivo, summary statement (Figure 5)
  several functional parameters in vivo: reduced
